From patent publication US8242160B2, “Inhibitors of ubiquitin E1” (The United States of America, as represented by the …, priority 2005, dated 2012) come the findings set out here.

Assay [1] relates to MEFs (mouse embryonic fibroblasts) that express wild type p53. The experiment in a line: Killing of MEFs that express wild type p53. In kind it is cell-based. The source says: (§1) While p53 induces apoptotic cell death in many tumor cells, it generally only induces growth arrest in untransformed cells. This has been the rationale for many studies targeting the p53 system.
Assay [2] relates to Mdm2. The experiment in a line: Cellular Mdm2 level by immunoblotting. The class given is cell-based. To be noted: six hours treatment; RPE cells. An excerpt:
FIG. 5A depicts the increase in the levels of Mdm2 and p53 in RPE cells after treatment with the E1 inhibitor 4-[4-(5-nitro-furan-2-ylmethylene)-3,5-dioxo-pyrazolidin-1-yl]-benzoic acid methyl acid.
A general note: In western blotting, separated proteins are transferred to a membrane and probed.

Assay [3] has as its system TRAF6. In words: TNFα-induced TRAF6 ubiquitination, immunoprecipitation and immunoblotting. In kind it is cell-based. To be noted: T cell leukemia Jurkat. An excerpt: To determine whether 4-[4-(5-nitro-furan-2-ylmethylene)-3,5-dioxo-pyrazolidin-1-yl]-benzoic acid methyl acid blocks ubiquitination of TRAF6 in response to TNFα, TRAF6 was immunoprecipitated from the T cell leukemia Jurkat after TNFα treatment, followed by immunoblotting (FIG. 4C).

The target in assay [4] is T1, Rabbit E1 (Oryctolagus cuniculus, UniProt Q29504).
T1 construct: purchased Calbiochem #6620700
T1 sequence (Q29504 1-1058): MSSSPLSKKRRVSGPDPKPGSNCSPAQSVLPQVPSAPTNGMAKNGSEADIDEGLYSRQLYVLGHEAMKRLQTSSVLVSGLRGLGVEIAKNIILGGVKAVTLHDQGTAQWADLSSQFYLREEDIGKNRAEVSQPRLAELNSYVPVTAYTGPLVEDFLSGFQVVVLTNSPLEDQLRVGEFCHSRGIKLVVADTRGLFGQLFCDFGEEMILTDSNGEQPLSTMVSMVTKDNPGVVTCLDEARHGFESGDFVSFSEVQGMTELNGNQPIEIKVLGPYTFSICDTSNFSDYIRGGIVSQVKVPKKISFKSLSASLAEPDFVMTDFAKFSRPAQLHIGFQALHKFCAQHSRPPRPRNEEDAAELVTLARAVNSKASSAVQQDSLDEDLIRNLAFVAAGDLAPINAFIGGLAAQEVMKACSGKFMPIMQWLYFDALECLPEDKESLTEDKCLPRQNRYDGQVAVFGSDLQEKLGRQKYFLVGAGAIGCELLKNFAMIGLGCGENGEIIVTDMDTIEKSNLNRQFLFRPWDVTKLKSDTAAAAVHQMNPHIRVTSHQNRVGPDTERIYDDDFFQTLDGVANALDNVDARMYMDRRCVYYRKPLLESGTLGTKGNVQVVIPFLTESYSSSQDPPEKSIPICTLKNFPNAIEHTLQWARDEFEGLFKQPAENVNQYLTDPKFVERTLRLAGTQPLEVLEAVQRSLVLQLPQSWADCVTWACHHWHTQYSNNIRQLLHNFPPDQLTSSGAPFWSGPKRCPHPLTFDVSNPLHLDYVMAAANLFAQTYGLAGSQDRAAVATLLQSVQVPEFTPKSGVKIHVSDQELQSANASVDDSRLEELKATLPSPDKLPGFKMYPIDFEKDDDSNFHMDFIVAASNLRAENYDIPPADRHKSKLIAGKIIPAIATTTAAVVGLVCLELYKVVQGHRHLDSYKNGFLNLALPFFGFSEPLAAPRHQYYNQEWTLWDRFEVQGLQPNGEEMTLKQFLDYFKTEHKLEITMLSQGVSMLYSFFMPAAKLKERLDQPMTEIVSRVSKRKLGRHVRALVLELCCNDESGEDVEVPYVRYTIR
The experiment in a line: E1 only assay: thiolester linkage between 32P-labeled ubiquitin and E1. In kind it is biochemical. Conditions: gel-based assay with 32P-labeled ubiquitin; stated after block of E1-ubiquitin thiolester formation (FIG. 1B). As for the experimental part:
Since Mdm2 autoubiquitination depends on the activity of E1 and E2, some of these might act by inhibiting E1. In fact, some did block the formation of thiolester linkages between ^32P-labeled ubiquitin and E1 (FIG. 1B). The compound 4-[4-(5-nitro-furan-2-ylmethylene)-3,5-dioxo-pyrazolidin-1-yl]-benzoic acid methyl acid was active at a concentration of 20-50 μM.
b. “E1 Only” Assay. • 2 μl rabbit E1+12 μl of 1× reaction buffer are mixed together with the test compound followed by addition of 1 μl of ^32P Ub. After incubating for 10 minutes at room temperature, the samples are denatured using loading buffer without reducing agent and subjected to SDS-PAGE under non-reducing conditions to maintain thiol-ester linkages and exposure as above.

Assay [5] relates to U2O cells. In words: Proteasome inhibitor-induced accumulation of ubiquitylated proteins. To be noted: 50 μM with ALLN 50 μM, four hours. In kind it is cell-based.
For assay [6], the system named is J588 mouse myeloma cells. The experiment in a line: Killing of myeloma cells. The class given is cell-based.
Excerpt: FIG. 6B depicts the dose-depending killing of J588 mouse myeloma cells by proteasome and E1 inhibitor by 4-[4-(5-nitro-furan-2-ylmethylene)-3,5-dioxo-pyrazolidin-1-yl]-benzoic acid methyl acid.
as §1

Assay [7] deals with untransformed retinal pigment epithelial cells. In words: Growth of untransformed RPE cells, MTT assay. In kind it is cell-based.
Excerpt: FIG. 6A depicts the induction of growth arrest in untransformed RPE cells by 4-[4-(5-nitro-furan-2-ylmethylene)-3,5-dioxo-pyrazolidin-1-yl]-benzoic acid methyl […], as measured by MTT assay.
as §1

For assay [8], the system named is IκBα. In words: TNFα-induced IκBα phosphorylation in cells. Conditions: 1 minute stimulation. The class given is cell-based.

Regarding `COC(=O)c1ccc(N2NC(=O)/C(=C/c3ccc([N+](=O)[O-])o3)C2=O)cc1` [E1-41, 4-[4-(5-nitro-furan-2-ylmethylene)-3,5-dioxo-pyrazolidin-1-yl]-benzoic acid methyl acid], the “killing of MEFs expressing wild type p53” value in assay [1] is “only kills MEFs”. For the same compound, the “cellular Mdm2 level” value in assay [2] is “increased”. In addition, the “TNFα-induced ubiquitination of TRAF6” value in assay [3] is reported as “effectively inhibited”. In addition, the “concentration at which the compound was active” value in assay [4] fell in the range of 20 to 50 µM. The “accumulation of ubiquitylated proteins in proteasome inhibitor-treated cells” value in assay [5] was “inhibit the accumulation of ubiquiylated proteins”. Moreover, in assay [6], the “killing of myeloma cells” value is “kills myeloma cells in a dose-dependent manner”. For the same compound, in assay [7], the “effect on growth of untransformed retinal pigment epithelial cells” value is listed as “causes growth arrest”. Moreover, the “IκBα phosphorylation following TNFα treatment” value in assay [8] is listed as “blocks IκBα phosphorylation”.
